The record followed here is ChEMBL document CHEMBL1909046, “DrugMatrix in vitro pharmacology data”.

Test system in the first test: not listed separately
Put plainly: DRUGMATRIX: Glutamate, AMPA radioligand binding (ligand: [3H] AMPA). The class given is cell membranes, Rattus norvegicus, Wistar, Cerebral cortex, Membrane. To be noted: Not Active = under 50% inhibition at 10 µM.
For orientation: IC50 means the concentration needed to halve the response being measured. Regarding `CC(=O)O[C@]1(C(C)=O)CC[C@H]2[C@@H]3C=C(Cl)C4=CC(=O)CC[C@]4(C)[C@H]3CC[C@@]21C` [CHLORMADINONE ACETATE], the IC50 result is on record as “Not Active” and the Ki result is “Not Active”.

Test system in a further test: not listed separately
Put plainly: DRUGMATRIX: Phorbol Ester radioligand binding (ligand: [3H] PDBu). The class given is cell membranes, Mus musculus, ICR, Brain, Membrane. To be noted: Not Active = under 50% inhibition at 10 µM.
Turning to `CC(=O)O[C@]1(C(C)=O)CC[C@H]2[C@@H]3C=C(Cl)C4=CC(=O)CC[C@]4(C)[C@H]3CC[C@@]21C` [CHLORMADINONE ACETATE], the IC50 entry is on record as “Not Active” and the Ki entry is reported as “Not Active”.

The target in a further test is Estrogen receptor beta (Homo sapiens, UniProt Q92731). Note: in other assays of this panel Not Active means under 50% inhibition at 10 µM.
Sequence of Estrogen receptor beta (Q92731 whole entry): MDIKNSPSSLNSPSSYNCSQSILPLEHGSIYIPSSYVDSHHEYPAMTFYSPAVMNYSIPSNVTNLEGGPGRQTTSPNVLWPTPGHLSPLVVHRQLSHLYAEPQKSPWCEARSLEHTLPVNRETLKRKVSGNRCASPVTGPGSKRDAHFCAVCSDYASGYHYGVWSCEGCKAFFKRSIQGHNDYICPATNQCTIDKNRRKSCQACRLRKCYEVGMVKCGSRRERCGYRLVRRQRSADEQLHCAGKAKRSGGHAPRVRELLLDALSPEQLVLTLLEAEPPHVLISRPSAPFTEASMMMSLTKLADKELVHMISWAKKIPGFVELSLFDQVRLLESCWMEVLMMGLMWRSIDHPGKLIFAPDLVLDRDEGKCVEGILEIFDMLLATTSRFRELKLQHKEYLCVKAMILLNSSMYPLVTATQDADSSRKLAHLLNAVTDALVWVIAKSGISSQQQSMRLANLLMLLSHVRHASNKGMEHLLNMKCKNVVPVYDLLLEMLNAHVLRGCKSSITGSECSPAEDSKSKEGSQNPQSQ
Test: not given
To be noted: sf9.
In the case of `CC(=O)O[C@]1(C(C)=O)CC[C@H]2[C@@H]3C=C(Cl)C4=CC(=O)CC[C@]4(C)[C@H]3CC[C@@]21C` [CHLORMADINONE ACETATE], the IC50 result is “Not Active”.

The target in a further test is C-C chemokine receptor type 2 (Homo sapiens, UniProt P41597). Note: in other assays of this panel Not Active means under 50% inhibition at 10 µM.
Sequence of C-C chemokine receptor type 2 (P41597 whole entry): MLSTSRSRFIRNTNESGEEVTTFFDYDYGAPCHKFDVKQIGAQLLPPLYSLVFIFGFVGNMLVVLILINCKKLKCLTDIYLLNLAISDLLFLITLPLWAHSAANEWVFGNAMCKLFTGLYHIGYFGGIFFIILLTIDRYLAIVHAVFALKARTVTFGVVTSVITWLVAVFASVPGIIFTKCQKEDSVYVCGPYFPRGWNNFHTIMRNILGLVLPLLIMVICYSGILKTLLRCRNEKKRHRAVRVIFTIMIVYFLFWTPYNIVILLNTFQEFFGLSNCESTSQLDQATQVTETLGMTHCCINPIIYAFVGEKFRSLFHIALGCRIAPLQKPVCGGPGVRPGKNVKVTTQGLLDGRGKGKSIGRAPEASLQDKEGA
Test: not given
The class given is cell membranes, CHO-K1, Membrane. To be noted: cho-k1.
Take `CC(=O)O[C@]1(C(C)=O)CC[C@H]2[C@@H]3C=C(Cl)C4=CC(=O)CC[C@]4(C)[C@H]3CC[C@@]21C` [CHLORMADINONE ACETATE]: the IC50 result is “Not Active”.

The target in another test is T1, Neuropeptide Y receptor type 1 (Homo sapiens, UniProt P25929). Note: in other assays of this panel Not Active means under 50% inhibition at 10 µM.
T1 sequence (P25929 whole entry): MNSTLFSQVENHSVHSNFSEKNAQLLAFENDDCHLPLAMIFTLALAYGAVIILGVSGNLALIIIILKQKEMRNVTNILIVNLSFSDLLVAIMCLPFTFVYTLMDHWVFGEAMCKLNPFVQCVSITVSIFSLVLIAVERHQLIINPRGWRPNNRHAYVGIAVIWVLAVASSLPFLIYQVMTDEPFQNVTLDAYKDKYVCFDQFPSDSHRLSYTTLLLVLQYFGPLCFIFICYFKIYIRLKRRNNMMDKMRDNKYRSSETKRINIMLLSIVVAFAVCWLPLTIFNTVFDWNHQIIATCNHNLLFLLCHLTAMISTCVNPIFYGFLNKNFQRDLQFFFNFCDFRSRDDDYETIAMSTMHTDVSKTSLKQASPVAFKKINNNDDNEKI
Test: not given
It counts as cell membranes, Membrane. To be noted: sk-n-mc.
In the case of `CC(=O)O[C@]1(C(C)=O)CC[C@H]2[C@@H]3C=C(Cl)C4=CC(=O)CC[C@]4(C)[C@H]3CC[C@@]21C` [CHLORMADINONE ACETATE], the IC50 entry is listed as “Not Active”.

The next test deals with T2, Neutrophil elastase (Homo sapiens, UniProt P08246).
T2 sequence (P08246 whole entry): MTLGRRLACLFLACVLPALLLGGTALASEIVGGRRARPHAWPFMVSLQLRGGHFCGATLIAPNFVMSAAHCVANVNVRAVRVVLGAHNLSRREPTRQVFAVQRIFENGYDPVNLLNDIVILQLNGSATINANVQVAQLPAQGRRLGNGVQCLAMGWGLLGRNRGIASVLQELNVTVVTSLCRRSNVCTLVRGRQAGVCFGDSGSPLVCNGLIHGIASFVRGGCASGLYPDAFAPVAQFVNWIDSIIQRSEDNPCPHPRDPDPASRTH
Test: not given
Conditions: not given
The class given is tissue-based.
As to `CC(=O)O[C@]1(C(C)=O)CC[C@H]2[C@@H]3C=C(Cl)C4=CC(=O)CC[C@]4(C)[C@H]3CC[C@@]21C` [CHLORMADINONE ACETATE], the IC50 result is recorded as “Not Active”.

In another test the target is T3, C-C chemokine receptor type 4 (Homo sapiens, UniProt P51679). Note: in other assays of this panel Not Active means under 50% inhibition at 10 µM.
T3 sequence (P51679 whole entry): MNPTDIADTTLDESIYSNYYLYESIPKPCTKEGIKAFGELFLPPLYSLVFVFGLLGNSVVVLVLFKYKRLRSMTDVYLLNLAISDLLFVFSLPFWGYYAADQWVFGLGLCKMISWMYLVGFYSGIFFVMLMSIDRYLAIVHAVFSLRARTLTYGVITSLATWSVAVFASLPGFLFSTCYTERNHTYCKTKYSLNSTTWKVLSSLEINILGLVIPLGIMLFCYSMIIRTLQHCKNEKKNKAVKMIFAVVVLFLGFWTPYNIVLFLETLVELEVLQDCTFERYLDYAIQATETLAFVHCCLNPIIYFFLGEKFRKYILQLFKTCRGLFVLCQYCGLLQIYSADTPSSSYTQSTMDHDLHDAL
Test: not given
It counts as cell membranes, Membrane. To be noted: chem-1.
On to `CC(=O)O[C@]1(C(C)=O)CC[C@H]2[C@@H]3C=C(Cl)C4=CC(=O)CC[C@]4(C)[C@H]3CC[C@@]21C` [CHLORMADINONE ACETATE], for which the IC50 entry is listed as “Not Active”.

The target in another test is cGMP-specific 3',5'-cyclic phosphodiesterase (Homo sapiens, UniProt O76074). Briefly: DRUGMATRIX: Phosphodiesterase PDE5 enzyme inhibition (substrate: [3H]cGMP + cGMP). It counts as tissue-based, Platelet. To be noted: platelet; Not Active = under 50% inhibition at 10 µM.
As for `CC(=O)O[C@]1(C(C)=O)CC[C@H]2[C@@H]3C=C(Cl)C4=CC(=O)CC[C@]4(C)[C@H]3CC[C@@]21C` [CHLORMADINONE ACETATE], the IC50 result is listed as “Not Active”.

Target in the next test: not listed separately
Briefly: DRUGMATRIX: ATPase, Na+/K+ enzyme inhibition (substrate: ATP). It counts as tissue-based, Sus scrofa, Heart. To be noted: Not Active = under 50% inhibition at 10 µM; read-out: IC50.
`CC(=O)O[C@]1(C(C)=O)CC[C@H]2[C@@H]3C=C(Cl)C4=CC(=O)CC[C@]4(C)[C@H]3CC[C@@]21C` [CHLORMADINONE ACETATE]: the IC50 is 4.57 µM.

The next test deals with T4, Leukotriene C4 synthase (Cavia porcellus, UniProt A6XA80).
T4 sequence (A6XA80 whole entry): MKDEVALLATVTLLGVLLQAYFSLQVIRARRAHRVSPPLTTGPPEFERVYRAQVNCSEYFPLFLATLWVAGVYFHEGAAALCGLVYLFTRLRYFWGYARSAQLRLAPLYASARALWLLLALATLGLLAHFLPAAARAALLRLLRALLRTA
Put plainly: biochemical. The class given is tissue-based, Lung.
Conditions: not given
Turning to `CC(=O)O[C@]1(C(C)=O)CC[C@H]2[C@@H]3C=C(Cl)C4=CC(=O)CC[C@]4(C)[C@H]3CC[C@@]21C` [CHLORMADINONE ACETATE], the IC50 entry is given as “Not Active”.

Test system in a further test: not listed separately
Put plainly: DRUGMATRIX: Glutamate, Kainate radioligand binding (ligand: [3H] Kainic acid). The class given is cell membranes, Rattus norvegicus, Wistar, Brain, Membrane. To be noted: Not Active = under 50% inhibition at 10 µM.
Consider `CC(=O)O[C@]1(C(C)=O)CC[C@H]2[C@@H]3C=C(Cl)C4=CC(=O)CC[C@]4(C)[C@H]3CC[C@@]21C` [CHLORMADINONE ACETATE], for which the IC50 entry is listed as “Not Active” and the Ki entry is on record as “Not Active”.

Another test concerns the target T5, Nitric oxide synthase, inducible (Mus musculus, UniProt P29477).
T5 sequence (P29477 whole entry): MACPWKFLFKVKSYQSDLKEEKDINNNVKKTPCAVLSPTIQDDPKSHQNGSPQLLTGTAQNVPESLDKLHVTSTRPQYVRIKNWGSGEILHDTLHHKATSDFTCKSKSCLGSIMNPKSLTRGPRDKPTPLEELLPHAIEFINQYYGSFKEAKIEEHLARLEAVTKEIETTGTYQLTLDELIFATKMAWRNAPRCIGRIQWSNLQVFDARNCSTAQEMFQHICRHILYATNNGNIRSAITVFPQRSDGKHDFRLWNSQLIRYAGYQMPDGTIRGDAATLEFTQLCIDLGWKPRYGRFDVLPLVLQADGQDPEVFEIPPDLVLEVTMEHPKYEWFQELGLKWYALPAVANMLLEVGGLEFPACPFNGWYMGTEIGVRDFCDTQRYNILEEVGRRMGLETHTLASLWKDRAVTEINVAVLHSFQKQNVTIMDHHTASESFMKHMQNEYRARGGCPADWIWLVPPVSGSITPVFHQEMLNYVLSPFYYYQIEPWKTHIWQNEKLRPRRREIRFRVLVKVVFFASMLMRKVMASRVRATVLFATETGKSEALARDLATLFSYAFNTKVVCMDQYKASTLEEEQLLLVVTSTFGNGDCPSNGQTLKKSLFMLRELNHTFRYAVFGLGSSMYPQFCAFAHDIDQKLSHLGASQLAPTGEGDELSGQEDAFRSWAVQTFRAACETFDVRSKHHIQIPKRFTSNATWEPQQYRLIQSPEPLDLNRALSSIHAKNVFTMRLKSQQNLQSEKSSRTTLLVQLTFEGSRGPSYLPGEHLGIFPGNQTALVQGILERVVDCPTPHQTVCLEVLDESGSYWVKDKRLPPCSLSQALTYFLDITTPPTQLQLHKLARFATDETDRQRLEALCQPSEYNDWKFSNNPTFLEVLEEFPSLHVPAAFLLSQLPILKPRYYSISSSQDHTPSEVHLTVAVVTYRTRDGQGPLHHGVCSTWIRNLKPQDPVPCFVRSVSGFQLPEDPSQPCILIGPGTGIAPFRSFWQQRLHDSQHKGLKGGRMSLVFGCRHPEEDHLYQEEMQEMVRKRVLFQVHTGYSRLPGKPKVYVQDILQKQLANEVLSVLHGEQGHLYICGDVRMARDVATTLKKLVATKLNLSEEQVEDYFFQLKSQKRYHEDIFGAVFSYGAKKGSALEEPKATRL
Test: not given
Conditions: not given
Set-up: species or system Escherichia coli.
On to `CC(=O)O[C@]1(C(C)=O)CC[C@H]2[C@@H]3C=C(Cl)C4=CC(=O)CC[C@]4(C)[C@H]3CC[C@@]21C` [CHLORMADINONE ACETATE], for which the IC50 result is on record as “Not Active”.

The target of the next test is Insulin receptor (Rattus norvegicus, UniProt P15127). Note: in other assays of this panel Not Active means under 50% inhibition at 10 µM.
Sequence of Insulin receptor (P15127 27-759 limits assumed): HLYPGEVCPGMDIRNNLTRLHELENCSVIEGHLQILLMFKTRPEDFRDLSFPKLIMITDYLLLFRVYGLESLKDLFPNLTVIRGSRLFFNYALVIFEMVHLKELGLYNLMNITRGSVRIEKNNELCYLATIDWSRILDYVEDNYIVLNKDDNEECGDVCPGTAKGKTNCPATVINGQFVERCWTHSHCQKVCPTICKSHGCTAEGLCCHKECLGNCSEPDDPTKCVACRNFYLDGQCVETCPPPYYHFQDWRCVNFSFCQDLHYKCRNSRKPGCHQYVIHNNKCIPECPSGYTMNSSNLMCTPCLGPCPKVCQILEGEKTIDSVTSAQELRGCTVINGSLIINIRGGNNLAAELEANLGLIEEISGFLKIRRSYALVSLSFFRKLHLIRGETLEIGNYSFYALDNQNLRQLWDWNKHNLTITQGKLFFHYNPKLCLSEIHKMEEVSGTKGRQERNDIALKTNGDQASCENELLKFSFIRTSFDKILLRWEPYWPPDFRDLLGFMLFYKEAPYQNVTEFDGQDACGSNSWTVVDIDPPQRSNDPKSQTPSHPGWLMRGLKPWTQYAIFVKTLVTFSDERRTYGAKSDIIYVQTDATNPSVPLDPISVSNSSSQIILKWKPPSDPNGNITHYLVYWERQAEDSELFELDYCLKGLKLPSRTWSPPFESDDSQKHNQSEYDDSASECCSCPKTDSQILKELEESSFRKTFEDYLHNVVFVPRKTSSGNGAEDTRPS
Sequence of Insulin receptor (P15127 764-1383 limits assumed): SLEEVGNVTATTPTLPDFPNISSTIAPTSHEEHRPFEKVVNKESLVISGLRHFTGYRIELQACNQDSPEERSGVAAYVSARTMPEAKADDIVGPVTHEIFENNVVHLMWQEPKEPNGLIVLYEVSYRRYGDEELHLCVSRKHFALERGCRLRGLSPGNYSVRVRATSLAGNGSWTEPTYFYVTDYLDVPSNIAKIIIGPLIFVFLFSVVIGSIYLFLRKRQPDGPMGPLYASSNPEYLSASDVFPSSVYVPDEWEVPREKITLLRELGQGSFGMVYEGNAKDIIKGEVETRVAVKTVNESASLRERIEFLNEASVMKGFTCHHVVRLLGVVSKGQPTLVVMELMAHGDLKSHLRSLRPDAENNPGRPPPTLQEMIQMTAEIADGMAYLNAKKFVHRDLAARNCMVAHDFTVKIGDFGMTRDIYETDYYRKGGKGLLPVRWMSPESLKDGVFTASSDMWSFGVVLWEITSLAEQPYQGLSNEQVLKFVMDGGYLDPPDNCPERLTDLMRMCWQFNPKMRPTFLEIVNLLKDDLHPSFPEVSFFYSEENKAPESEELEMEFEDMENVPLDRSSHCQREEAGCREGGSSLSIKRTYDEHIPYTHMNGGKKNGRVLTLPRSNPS
Test: not given
The class given is cell membranes, Wistar, Liver, Membrane.
Conditions: not given
`CC(=O)O[C@]1(C(C)=O)CC[C@H]2[C@@H]3C=C(Cl)C4=CC(=O)CC[C@]4(C)[C@H]3CC[C@@]21C` [CHLORMADINONE ACETATE]: the 50% inhibitory concentration (IC50) entry is “Not Active”.
